Source: patent publication US20250302967A1, “PEPTIDE FORMULATIONS AND USES THEREOF” (Amytrx Therapeutics, Inc., priority 2022, published 2025)
Positions of bridges follow the written chain, without caps; N, C: chain ends. Residues, ends and D or L forms follow the SMILES beside them.

How the values were obtained:
[1] = 7-day repeat dose tolerance dermal study in Gottingen Mini-Pigs (non-GLP); format: in vivo
Description: The purpose of this study was to evaluate the dermal dose tolerance at the maximum feasible dose (concentration and application rate) of Compound 1 in Formulation 1, Formulation 2, or Formulation 3 of Table 2, including placebo (F1, F2, or F3 without Compound 1) when applied by topical dermal application to Gottingen Mini-Pigs twice daily for seven days.
Three experimentally naive male Gottingen Mini-Pigs, 4-5 months old and weighing 10.6-13.8 kilograms at the outset of the study had four dose sites (100 cm^2 per site) numbered 1, 2, 3, and 4. The dose sites were not rotated.
Animals were dosed with all formulations twice daily (two doses per site per day; 6 hours+/−30 minutes between the first and second dose for 7 days). Mortality/morbidity was performed twice daily and once on the day of scheduled euthanasia. On Days 1-7 animals were observed prior to dosing and at 1-2 hours post-dose. A final observation was recorded on Day 8 prior to scheduled euthanasia. Body weights were recorded on Days 1 and 7. Food consumption was determined daily. Blood for toxicokinetic evaluation was collected on Days 1 and 7 at 0.5, 1, 2, 4, 6, 8 and 24 hours post-dose. […] Animals were sacrificed on Day 8 and a gross necropsy was performed. The dosing area (skin) was collected and preserved.

[2] = system: mild to moderate atopic dermatitis; format: in vivo, human
Protocol: 26 subjects having mild to moderate atopic dermatitis and about 3-70% treatable body surface area (BSA) were enrolled in the study. […] Dosing was targeted at 0.62 g/kg/day of the formulation or 6.82 mg/kg/day of Compound 1. Based on an average body weight of 60 kg, and average BSA of 1.62 m2, a recommended starting dose of 2.5 g of a formulation (for example, Formulation 1 or 4; Formulations 2, 3, 5, and 6 may be dosed higher due to the lower concentration of Compound 1) is proposed as a starting point. Severity of atopic dermatitis (vIGA-AD score), treatable BSA, and the following 11 signs and symptoms were assessed: dryness, erythema, burning/stinging, erosion/ulceration, edema/swelling, itching, pain treated area, crusting, vesiculation, flaking/scaling, and bleeding.

[3] = system: Phorbol Myristoyl Acetate (PMA)-induced skin inflammation; format: in vivo; details: mouse
Description: The anti-inflammatory efficacy of Compound 1 on a Phorbol Myristoyl Acetate (PMA)-induced skin inflammatory mouse model (irritant contact dermatitis) is shown following topical application of a formulation including Compound 1 herein.

[4] = at EOT or at 2-week follow-up visit

## CSCC[C@@H]1NC(=O)[C@H](CC(C)C)NC(=O)[C@H](CCCCN)NC(=O)[C@H](CCC(N)=O)NC(=O)[C@H](CCCNC(=N)N)NC(=O)[C@H](CCCCN)NC(=O)[C@H](CCCNC(=N)N)NC(=O)[C@H](CCC(N)=O)NC(=O)[C@H](C(C)C)NC(=O)[C@@H](NC(=O)[C@@H]2CCCN2C(=O)[C@H](C)NC(=O)[C@H](CC(C)C)NC(=O)[C@H](CC(C)C)NC(=O)[C@H](C)NC(=O)[C@H](CC(C)C)NC(=O)[C@H](CC(C)C)NC(=O)[C@@H](NC(=O)[C@H](C)NC(=O)[C@@H]2CCCN2C(=O)[C@H](CC(C)C)NC(=O)[C@H](CC(C)C)NC(=O)[C@H](C)NC(=O)[C@@H](NC(=O)[C@H](C)NC(=O)[C@H](C)N)C(C)C)C(C)C)CSSC[C@@H](C(=O)O)NC(=O)[C@@H]2CCCN2C1=O [Compound 1] (H-AAVALLPAVLLALLAPCVQRKRQKLMPC-OH; disulfide 17-28)
[1]; male mini-pigs, 0, 0.11, 0.33, 1.1% w/w applied topically twice daily for 7 consecutive days
  dermal tolerance: tolerated
[1]; male mini-pigs, highest dose tested: 0.75 grams of formulation applied twice daily for 7 days
  no-observed-adverse-effect level (NOAEL): 1.1 % w/w
[1]; male mini-pigs, topical 0.11, 0.33, 1.1% w/w (F3, F2, F1), 0.75 g per site twice daily for 7 days
  early deaths (mortality): no early deaths
[1]; male mini-pigs, topical 0.11, 0.33, 1.1% w/w, twice daily for 7 days
  clinical signs or dermal effects: no clinical signs or dermal effects noted
[1]; minipig, in vivo
  dermal irritation: no signs of dermal irritation
  general signs of toxicity: no general signs of toxicity
[2]; 1.1% as Formulation 4, BID for 7 days
  11 signs and symptoms of AD scored from patient diaries: net negative score
[2]; at 2-week follow up
  subjects whose vIGA-AD score worsened 2 units: 0 subjects
[2]; at 2-week follow up (3 subjects)
  subjects whose EOT vIGA-AD score worsened 1 unit: 13%
[2]; at 2-week follow up (10 subjects)
  subjects with improvement in vIGA-AD scores of 2 units: 44%
[2]; at 2-week post treatment
  subjects with 0-clear or 1-almost clear skin: 61%
[2]; at EOT (6 subjects)
  subjects with improved vIGA-AD scores of 2 units: 26%
[2]; at EOT (BID for 7 days)
  subjects with 0-clear or 1-almost clear vIGA-AD scores: 57%
[2]; [4]
  patients responding (reduction in treatable BSA or decrease in vIGA-AD severity score, or both): 24 of 26
  reduction in size of treatable BSA in responders: 20-100%
[2]; in vivo
  adverse events (AEs): no adverse events
  tolerability: well tolerated
[3]; 8 h post-challenge
  swelling and cellular infiltration in ear punch biopsies induced by PMA: reduced
[3]; in vivo
  skin wound healing and hair re-growth after repeated surgical trauma: does not impede
[3]; topical formulation, dose-dependent treatment
  inflammatory cell infiltration in skin biopsies in response to PMA: reduced
[3]; topical treatment
  ear swelling (ear thickness of intact ears) induced by PMA: attenuated
